Measurements reported in patent US11865129B2, “Application of anemoside B4 in preparation of a drug for treatment or prevention of psoriasis” (GUANGXI XINHAI PHARMACEUTICAL TECHNOLOGY CO., LTD., priority 2021, dated 2024).

Columns and labels:
[1] = Weights of mice, 5% imiquimod-induced psoriasis model (first animal group); format: in vivo, BALB/c male mice; settings: for weights of the mice / weight loss of the mice caused by psoriasis: 12 days; for weights of the mice: compared with blank control group; for weight loss of the mice caused by psoriasis: compared with model control group
Method: (§1) A shaving area on the back of the mice in each group is 2.5 cm×3 cm, and the vellus is removed with mild depilatory cream. The mice of each group except the blank control group are modeled by administrating 62.5 mg 5% imiquimod cream on the shaving area until the skin is thickened and has erythema and silver scales for modeling completely. During the model establishment, 5% imiquimod cream is administrated once a day, and continuously administrated for 14 days. On the third day, the model establishment is continued and drugs are administered at the same time, wherein the mice in the AC intragastric administration group (8 mg/kg), the anemoside B4 intragastric (i.g.) administration group (5 mg/kg), the anemoside B4 intragastric administration group (10 mg/kg), and the anemoside B4 intragastric administration group (20 mg/kg) are administrated once a day, and continuously administrated for 12 days. […] The mice in the blank control group and the model control group are applied 62.5 mg Vaseline to the skin lesions once a day, and continuously applied for 12 days. The weight of the mice is recorded for counting the weight change of the mice.

[2] = tested on: 5% imiquimod-induced psoriatic lesions; assay: Psoriatic lesions and PASI, 5% imiquimod-induced psoriasis model in rats (second animal group); format: in vivo, SD male rats; settings: 7 days; for erythema and skin lesions of the rats: compared to model control group; for PASI: compared with model control group
Method: (§2) 60 SPF-grade SD male rats in the second animal group are divided into 6 groups: a blank control group, a model control group, an anemoside B4 intragastric administration group (5 mg/kg), an anemoside B4 intragastric administration group (10 mg/kg), an anemoside B4 intragastric administration group (20 mg/kg), and an acitretin intragastric administration group (5 mg/kg), and are respectively expressed into the blank control group, the model group, anemoside B4 5 mg/kg, anemoside B4 10 mg/kg, anemoside B4 20 mg/kg, and acitretin 5 mg/kg in FIGS. 3, 4 and 5 for convenience. A shaving area on the back of the rats in each group is 2.5 cm×3 cm, and the vellus is removed with mild depilatory cream. The rats of each group except the blank control group are modeled by administrating 62.5 mg 5% imiquimod cream on the shaving area until the skin is thickened and has erythema and silver scales for modeling completely.
(§3) 5% imiquimod cream is administrated once a day, and continuously administrated for 8 days for model establishment. On the second day, the rats in each group are continuously intragastric (i.g.) administered drugs for 7 days.
The psoriasis area and severity index (PASI) of the mice in the first animal group and the rats in the second animal group is performed by taking photographs of the shaving area, giving 0-4 scores for the degree of erythema, scales and infiltration thickness in the skin lesions according to a PASI standard, and obtaining the total scores by summing the scores of the three parts; wherein the PASI standard is as follows: none 0, mild 1, moderate 2, severe 3, and extremely severe 4.

spleen = assay: Spleen coefficient, psoriasis model mice; format: in vivo, BALB/c male mice; settings: 12 days, compared with model control group
Method: as §1, with “mice. After blood collection of the mice in each group of the first animal group, the mice are killed by dislocation of cervical vertebra, quickly separated the spleen and weighed to obtain the wet weight of the spleen, recording and calculating the spleen coefficient, wherein the spleen coefficient (%)=(spleen wet weight/body weight)×100%.” for “mice.”

VEGF = VEGF level in serum by ELISA, psoriasis model rats; format: in vivo, SD male rats; settings: 7 days, vs model control group
Method: as §2, §3
After administration, blood is taken from abdominal aorta of the rats in each group of the second animal group, centrifuged to collect the serum, and measured the M-CSF, VEGF, IL-6 and IL-17 level in the serum by ELISA kits according to the procedures of specification.

[3] = tested on: white blood cell (WBC), Neutrophilicgranulocyte (Neu) and Lymphocyte (Lym); assay: Blood analysis (blood routine tester), psoriasis model mice; format: in vivo, BALB/c male mice; settings: 12 days, compared with model control group
Method: as §1, with “mice. Eyeball blood of the mice in each group of the first animal group is drawn on the last day, and measured the level of white blood cell (WBC), […] (Neu) and Lymphocyte (Lym) in blood with the blood routine tester.” for “mice.”

[4] = intragastric 5 mg/kg once a day
[5] = intragastric 10 mg/kg once a day
[6] = intragastric 20 mg/kg once a day

Q: Which results are given for C=C(C)[C@@H]1CC[C@]2(C(=O)O[C@@H]3O[C@H](CO[C@@H]4O[C@H](CO)[C@@H](O[C@@H]5O[C@@H](C)[C@H](O)[C@@H](O)[C@H]5O)[C@H](O)[C@H]4O)[C@@H](O)[C@H](O)[C@H]3O)CC[C@]3(C)[C@H](CC[C@@H]4[C@@]5(C)CC[C@H](O[C@@H]6OC[C@H](O)[C@H](O)[C@H]6O[C@@H]6O[C@@H](C)[C@H](O)[C@@H](O)[C@H]6O)[C@@](C)(CO)[C@@H]5CC[C@]43C)[C@H]12 [anemoside B4]?
A: reversal of weight loss caused by imiquimod, compared with the acitretin capsules (AC) intragastric administration group ([1]; anemoside B4 groups, doses not specified): better; weights of the mice [1, 4]: significantly decreased; weight loss of the mice caused by psoriasis [1, 4]: can be improved; weights of the mice [1, 5]: significantly decreased; weight loss of the mice caused by psoriasis [1, 5]: can be improved; weights of the mice [1, 6]: significantly decreased; weight loss of the mice caused by psoriasis [1, 6]: can be improved; erythema and skin lesions of the rats ([2]; intragastric 5 mg/kg): lightened; erythema and skin lesions of the rats ([2]; intragastric 10 mg/kg): lightened; PASI ([2]; intragastric 10 mg/kg): significantly decreased; erythema and skin lesions of the rats ([2]; intragastric 20 mg/kg): lightened; PASI ([2]; intragastric 20 mg/kg): significantly decreased; enlargement of the spleen (spleen; [4]): significantly relieved; spleen coefficient (spleen; [4]): significantly decreased; enlargement of the spleen (spleen; [5]): significantly relieved; spleen coefficient (spleen; [5]): significantly decreased; enlargement of the spleen (spleen; [6]): significantly relieved; spleen coefficient (spleen; [6]): significantly decreased; VEGF level in serum (VEGF; intragastric 5 mg/kg): significantly decreased; VEGF level in serum (VEGF; intragastric 10 mg/kg): significantly decreased; VEGF level in serum (VEGF; intragastric 20 mg/kg): significantly decreased; Lym in blood [3, 4]: significantly decreased; Neu in blood [3, 4]: significantly decreased; WBC in blood [3, 4]: significantly decreased; Lym in blood [3, 5]: significantly decreased; Neu in blood [3, 5]: significantly decreased; WBC in blood [3, 5]: significantly decreased; Lym in blood [3, 6]: significantly decreased; Neu in blood [3, 6]: significantly decreased; WBC in blood [3, 6]: significantly decreased
